From patent publication US20090325884A1, “Method for Detecting Autoantibodies Formed in Rheumatoid Arthritis” (PROCOLLAGEN OY, priority 2005, published 2009)
Marks after values point to notes of the source that are not given here. Where no end group is shown, it is not given here. [ ]: non-standard residue; d: D form. Cit = NC(=O)NCCC[C@H](N)C(=O)O

Columns and labels:
[1] = system: human sera; assay: ELISA: binding of biotinylated collagen peptides to human sera; settings: for Controls mean ± SD absorbance: 81 sera from healthy controls, read at 450 nm; for Controls over mean + 2 SD number: number of the 81 control sera; for RA patients over mean + 2 SD number: number of the 120 RA sera, significance marks versus controls; for number of RA sera that bound more citrullinated peptide than normal (arginine) peptide: 120 RA sera; for mean (variance/SD) of the differences, absorbance value of citrullinated peptide minus that of arginine peptide: control samples; for specific binding to the citrullinated form (autoantibodies against citrullinated proteins): RA sera
Excerpt: The serum samples from 120 patients with RA were obtained from the Division of Rheumatology of Oulu University Hospital. The controls consisted of 81 sera from healthy people matched for age and sex. Six pairs of biotinylated peptides were synthesised by NeoMPS (Strasbourg, France). […] FIGS. 1A-C show the localization of the peptides CC1-CC4 in type II collagen and their sequences; the numbers in brackets refer to arginine residues: CC1 (1059), CC2 (1048), CC3 (799) and CC4 (28). Collagenase cleavage site is shown by arrow in FIG. 1A -GPPGPQG|LAGQRGE- (SEQ ID NO:9). […] The sequence GPPGPGIDMSAFAGLGPREKGPDPLQYMXA is shown in the sequence listing as SEQ ID NO: 10. The 12 carboxy terminal amino acids represent the peptide CC1. […] One member of each pair contained the arginine predicted by the respective gene, whereas in the other member of the pair this was replaced by citrulline.
The biotinylated peptides were coupled to streptavidin-coated 96-well assay plates (BioBind Assembly, Thermo Labsystems Oy, Vantaa, Finland) at a concentration of 10 μg/well. The coupling was performed at room temperature, pH 7.5, for two hours. The streptavidin-coated wells had been blocked by the manufacturer to prevent unspecific binding.
The sera to be tested were diluted in assay buffer (10 mM Tris-HCl, 350mM NaCl, 1% BSA, 1% [vol/vol] Triton X-100, 0.5% [wt/vol] Na-deoxycholate, 0.1% SDS; pH 7.6) supplemented with 1% rabbit serum and incubated for an hour at room temperature. After washing (3 times with PBS/0.05% [vol/vol] Tween-20), 100 μl of anti-human IgG conjugated to peroxidase (Product #31412, Pierce, Rockford, Ill., USA) diluted 1:7500 in EIA buffer (20 mM Tris-HCl, 150 mM NaCl, 0.1% BSA, 0.05% Tween-20, pH 7.5) was added. After incubation for an hour at room temperature, the plates were washed (3 times with PBS/Tween-20). The bound antibodies were detected with 3,3′-5,5′-tetramethyl-benzidine (Sigma-Aldrich, St.Louis, Minn., USA) as a substrate (0.01 mg/100 μl per well in 100 mM sodium acetate trihydrate, 1.5 mM citric acid monohydrate, 0.0015% H2O2). After 30 minutes, the reaction was stopped by adding 100 μl 2M sulphuric acid/well. The plates were read at a wavelength of 450 nm in a Victor^2 instrument (Wallac, Turku, Finland) and calculated by Multicalc (Wallac). All the sera were tested in duplicate. The coefficients of variation were generally less than 10%.

[2] = system: IgG antibodies against the synthetic C-telopeptides of the α1 chains of human type I and II collagens; assay: Two-site chemiluminescence immunoassay with biotinylated C-telopeptides; assay type: binding
Method: The measurements were done with two-site chemiluminescence immunoassays, which detect IgG antibodies against the synthetic C-telopeptides of the α1 chains of human type I and II collagens (EKAHDGGRYYRA (SEQ ID NO:4), and EKGPDPLQYMRA (SEQ ID NO:5), or EKAHDGGRYYXA (SEQ ID NO:1), and EKGPDPLQYMXA (SEQ ID NO:3), respectively, where X stands for citrulline, from NeoMPS, Strasbourg, France). The serum samples were first diluted 1:10 in a buffer containing 10 mM Tris-HCl, 350 mM NaCl, 1% BSA, 1% [vol/vol] Triton X-100, 0.5% [wt/vol] Na-deoxycholate, 0.1% SDS; pH 7.6 and incubated with suitable concentrations of one of the above peptides (in biotinylated form) and streptavidin-coated magnetic particles for 10 minutes at 37° C. The unbound biotinylated antigen and antibodies were separated from the complex bound to the magnetic particles by aspiration of the reaction mixture and subsequent washing. Thereafter, acridinium-labeled anti-human IgG antibodies were added to the reaction mixture followed by another 10-minute incubation to produce the sandwich complex. The unbound label was separated by aspiration of the reaction mixture and subsequent washing. To the washed magnetic particles with the complex we injected the triggers 1 and 2, initiating the chemiluminescence reaction. […]

[3] = system: autoantibodies in sera binding citrulline containing type II collagen carboxytelopeptide; assay: Inhibition assay: citrullinated peptide ELISA with and without soluble peptide; parameters: species or system human; settings: soluble peptide 200 μg/ml
Method: Preferentially it is also possible to use only citrullinated peptide assay version, where this assay is performed with standard condition and with adding the same or similar soluble peptide in assay solution (200 μg/ml).
Sera from RA patients (n=120) and controls (n=80) were diluted 1:100 in assay buffer and/or inhibiting buffer (with soluble citrulline containing peptide (200 μg/ml)). The inhibition time was 30 minutes. After the inhibition reaction, the sera were moved to the wells of streptavidin-coated 96-well assay plates to which the biotinylated citrulline containing peptides had been coupled. After washing (3 times with PBS/0.05% [vol/vol] Tween-20), 100 μl of anti-human IgG conjugated to peroxidase (Product #31412, Pierce, Rockford, Ill., USA) diluted 1:7500 in EIA buffer (20 mM Tris-HCl, 150 mM NaCl, 0.1% BSA, 0.05% Tween-20, pH 7.5) was added. After incubation for an hour at room temperature, the plates were washed (3 times with PBS/Tween-20). The bound antibodies were detected with 3,3′-5,5′-tetramethyl-benzidine (Sigma-Aldrich, St.Louis, Minn., USA) as a substrate (0.01 mg/100 μl per well in 100 mM sodium acetate trihydrate, 1.5 mM citric acid monohydrate, 0.0015% H2O2). After 30 minutes, the reaction was stopped by adding 100 μl 2M sulphuric acid/well. The plates were read at a wavelength of 450 nm in a Victor instrument (Wallac, Turku, Finland). […]

With “EKAHDGGRYYRA (also: biotinylated, site not given here; listed as Homo sapiens) [C-telopeptide of α1(I) Arginine peptide, synthetic C-telopeptide of the α1 chain of human type I collagen]” the “Controls mean ± SD absorbance” value [1] was 0.288 ± 0.142, the “Controls over mean + 2 SD number” value [1] was 4/81 and the “RA patients over mean + 2 SD number” value [1] was 6/120^ns.
With “EKAHDGGRYYXA (EKAHDGGRYY[Cit]A; also: biotinylated, site not given here)” the “Controls mean ± SD absorbance” value [1] was 0.314 ± 0.117, the “number of RA sera that bound more citrullinated peptide than normal (arginine) peptide” value [1] was 20 and the “mean (variance/SD) of the differences, absorbance value of citrullinated peptide minus that of arginine peptide” value [1] was “around +0.026 (0.074)”. The “Controls over mean + 2 SD number” value [1] was 2/81, the “RA patients over mean + 2 SD number” value [1] was 24/120*** and the “number of RA patients whose sera showed increased binding of the citrullinated peptide” value ([2]; out of 120 RA patients, p=0.003 compared to controls) was 44.
In the case of “EKGPDPLQYMRA (listed as Homo sapiens) [CC1 Arginine peptide, C-telopeptide of the α1 chain of type II collagen]”, the “Controls mean ± SD absorbance” value [1] is reported as 0.181 ± 0.077, the “Controls over mean + 2 SD number” value [1] is reported as 2/81 and the “RA patients over mean + 2 SD number” value [1] is reported as 54/120***.
For “EKGPDPLQYMXA (EKGPDPLQYM[Cit]A; also: biotinylated, site not given here) [CC1 Citrulline peptide]”, the “Controls mean ± SD absorbance” value [1] was 0.155 ± 0.065, the “Controls over mean + 2 SD number” value [1] was 2/81 and the “RA patients over mean + 2 SD number” value [1] was 35/120***. The “inhibition-% with the respective soluble antigen in controls (mean±SD)” value ([3]; control sera diluted 1:100, 30 minutes) was 5.4%±3.8 and the “number of RA patients showing increased inhibition” value ([3]; out of 120, more inhibition than 13.0%) was 38.
In the case of “EKGPDPLQYMXA (EKGPDPLQYM[Cit]A; also: biotinylated, site not given here) [CC1]”, the “number of RA sera that bound more citrullinated peptide than normal (arginine) peptide” value [1] is reported as 12, the “specific binding to the citrullinated form (autoantibodies against citrullinated proteins)” value (from here on “specific binding”) [1] is reported as “specifically bound autoantibodies against citrullinated proteins” and the “mean (variance/SD) of the differences, absorbance value of citrullinated peptide minus that of arginine peptide” value [1] is reported as −0.026 (SD 0.032). For the same sequence, the “number of patients' sera that bound the citrullinated peptide more strongly than the arginine peptide” value ([2]; 120 RA patients, p=0.074 compared to controls, not significant) was 35.
In the case of “GPMGPXGPPGPA (GPMGP[Cit]GPPGPA; also: biotinylated (site not given here)) [CC4 Citrulline peptide]”, the “Controls mean ± SD absorbance” value [1] is reported as 0.184 ± 0.071, the “Controls over mean + 2 SD number” value [1] is reported as 2/81 and the “RA patients over mean + 2 SD number” value [1] is reported as 22/120***.
For “GPMGPXGPPGPA (GPMGP[Cit]GPPGPA; also: biotinylated (site not given here)) [CC4]”, the “specific binding” value [1] was “no specific binding” and the “mean (variance/SD) of the differences, absorbance value of citrullinated peptide minus that of arginine peptide” value [1] was “+0.005 (0.020)”.
With “GPMGPXGPPGPA [CC4 Arginine peptide] (GPMGPRGPPGPA; also: biotinylated, site not given here) [type II collagen peptide, arginine residue 28]” the “Controls mean ± SD absorbance” value [1] was 0.179 ± 0.070, the “Controls over mean + 2 SD number” value [1] was 3/81 and the “RA patients over mean + 2 SD number” value [1] was 60/120***.
In the case of “LAGQXGIVGLP (LAGQ[Cit]GIVGLP; also: biotinylated (site not given here)) [CC3 Citrulline peptide]”, the “Controls mean ± SD absorbance” value [1] is reported as 0.181 ± 0.067, the “Controls over mean + 2 SD number” value [1] is reported as 2/81 and the “RA patients over mean + 2 SD number” value [1] is reported as 32/120***.
In the case of “LAGQXGIVGLP (LAGQ[Cit]GIVGLP; also: biotinylated (site not given here)) [CC3]”, the “specific binding” value [1] is reported as “no specific binding” and the “mean (variance/SD) of the differences, absorbance value of citrullinated peptide minus that of arginine peptide” value [1] is reported as −0.001 (0.026).
For LAGQXGIVGLP [CC3 Arginine peptide], the “Controls mean ± SD absorbance” value [1] was 0.182 ± 0.073 and the “RA patients over mean + 2 SD number” value [1] was 63/120***.
With “SAFAGLGPXEKGPD (SAFAGLGP[Cit]EKGPD; also: biotinylated (site not given here)) [CC2 Citrulline peptide]” the “Controls mean ± SD absorbance” value [1] was 0.135 ± 0.054, the “Controls over mean + 2 SD number” value [1] was 1/81 and the “RA patients over mean + 2 SD number” value [1] was 25/120***.
With “SAFAGLGPXEKGPD (SAFAGLGP[Cit]EKGPD; also: biotinylated (site not given here)) [CC2]” the “number of RA sera that bound more citrullinated peptide than normal (arginine) peptide” value [1] was “two” and the “mean (variance/SD) of the differences, absorbance value of citrullinated peptide minus that of arginine peptide” value [1] was −0.027 (0.029).
In the case of SAFAGLGPXEKGPD [CC2 Arginine peptide], the “Controls mean ± SD absorbance” value [1] is reported as 0.162 ± 0.053, the “Controls over mean + 2 SD number” value [1] is reported as 3/81 and the “RA patients over mean + 2 SD number” value [1] is reported as 50/120***.
“YDFGYDGDFYXA (YDFGYDGDFY[Cit]A; also: biotinylated (site not given here)) [listing 1 of 2 here]” was tested, and the “Controls mean ± SD absorbance” value [1] was 0.763 ± 0.356, the “Controls over mean + 2 SD number” value [1] was 3/81 and the “RA patients over mean + 2 SD number” value [1] was 12/120**.
For “YDFGYDGDFYXA (YDFGYDGDFY[Cit]A; also: biotinylated (site not given here)) [listing 2 of 2 here]”, the “mean (variance/SD) of the differences, absorbance value of citrullinated peptide minus that of arginine peptide” value [1] was “+0.071 (0.252)”.
